Each structure is given as a SMILES string. “And” between values parts separate entries of the source, which are not always exact repeats. Equal entries are not always repeated. Inconclusive results and toxic doses are left out.

In PubChem BioAssay AID320 (DTP/NCI, 2004) one finds T/C data, which are given here for 31 molecules.

This assay concerns BDF1 mice, P329 reticulum cell sarcoma ip, survival T/C. Kind of assay: NCI In Vivo Anticancer Drug Screen. Data for tumor model P329 Reticulum Cell Sarcoma (intraperitoneal) in B6D2F1 (BDF1) mice. As to conditions: endpoint: median survival time, higher = longer survival. The procedure:
The antitumor activity of compounds was measured in mice bearing transplantable tumors. Survival or tumor size were measured and the results are expressed as the measurement made in the treated group (T) divided by the measurement made in the vehicle treated control group (C). The tumor model used in this assay is P329 Reticulum Cell Sarcoma (intraperitoneal) in B6D2F1 (BDF1) mice

The mark [1] stands for this setting: dose: 5.0 mg/kg/injection, schedule: Q01DX010 (ip), vehicle: saline.
Where [2] appears, read: dose: 10.0 mg/kg/injection, schedule: Q01DX010 (ip), vehicle: saline.
The mark [3] stands for this setting: dose: 20.0 mg/kg/injection, schedule: Q01DX010 (ip), vehicle: saline.
The mark [4] stands for this setting: dose: 16.0 mg/kg/injection, schedule: Q01DX010 (ip), vehicle: saline.
Where [5] appears, read: dose: 32.0 mg/kg/injection, schedule: Q01DX010 (ip), vehicle: saline.
Setting [6] is: dose: 64.0 mg/kg/injection, schedule: Q01DX010 (ip), vehicle: saline.
The mark [7] stands for this setting: dose: 25.0 mg/kg/injection, schedule: Q01DX010 (ip), vehicle: saline.
Setting [8] is: dose: 200.0 mg/kg/injection, schedule: Q01DX010 (ip), vehicle: saline.
Setting [9] is: dose: 62.5 mg/kg/injection, schedule: Q01DX010 (ip), vehicle: saline.
Setting [10] is: dose: 8.0 mg/kg/injection, schedule: Q01DX010 (ip), vehicle: saline.
The mark [11] stands for this setting: dose: 50.0 mg/kg/injection, schedule: Q01DX010 (ip), vehicle: saline.
Setting [12] is: dose: 100.0 mg/kg/injection, schedule: Q01DX010 (ip), vehicle: saline.
[13] abbreviates: dose: 2.5 mg/kg/injection, schedule: Q01DX010 (ip), vehicle: saline.
Where [14] appears, read: dose: 6.25 mg/kg/injection, schedule: Q01DX010 (ip), vehicle: saline.
[15] abbreviates: dose: 12.5 mg/kg/injection, schedule: Q01DX010 (ip), vehicle: saline.
[16] abbreviates: dose: 31.3 mg/kg/injection, schedule: Q01DX010 (ip), vehicle: saline.
[17] abbreviates: dose: 1.5 mg/kg/injection, schedule: Q01DX010 (ip), vehicle: saline.
Where [18] appears, read: dose: 3.0 mg/kg/injection, schedule: Q01DX010 (ip), vehicle: saline.
Where [19] appears, read: dose: 6.0 mg/kg/injection, schedule: Q01DX010 (ip), vehicle: saline.
[20] abbreviates: dose: 12.0 mg/kg/injection, schedule: Q01DX010 (ip), vehicle: saline.
The mark [21] stands for this setting: dose: 37.5 mg/kg/injection, schedule: Q01DX010 (ip), vehicle: saline.
Setting [22] is: dose: 75.0 mg/kg/injection, schedule: Q01DX010 (ip), vehicle: saline.
[23] abbreviates: dose: 4.0 mg/kg/injection, schedule: Q01DX010 (ip), vehicle: saline.

Turning to `S=c1nc[nH]c2nc[nH]c12`, the T/C is, setting by setting: (dose: 20.0 mg/kg/injection, schedule: Q01DX010 (ip), vehicle: alkali diluted with saline) 150 % of control; (dose: 80.0 mg/kg/injection, schedule: Q01DX010 (ip), vehicle: alkali diluted with saline) 158 % of control.

With `O=c1[nH]c(=O)n(C2CC(O)C(CO)O2)cc1F` (centres undefined), the T/C under setting [1] was 103 % of control; the T/C under setting [2] was 110 % of control and 111 % of control; the T/C under setting [3] is 123 % of control; the T/C (dose: 40.0 mg/kg/injection, schedule: Q01DX010 (ip), vehicle: saline) was 150 % of control; the T/C (dose: 80.0 mg/kg/injection, schedule: Q01DX010 (ip), vehicle: saline) was 161 % of control.

As to `O[C@H](CN1CC1)[C@@H](O)CN1CC1`, the T/C reads like this: (dose: 62.5 micrograms/kg/injection, schedule: Q01DX010 (ip), vehicle: saline) 106 % of control and 121 % of control; (dose: 125.0 micrograms/kg/injection, schedule: Q01DX010 (ip), vehicle: saline) 123 % of control; (dose: 250.0 micrograms/kg/injection, schedule: Q01DX010 (ip), vehicle: saline) 167 % of control; (dose: 500.0 micrograms/kg/injection, schedule: Q01DX010 (ip), vehicle: saline) 166 % of control.

For `O=C(Nc1ccc(C2=NCCN2)cc1)c1cccc(C(=O)Nc2ccc(C3=NCCN3)cc2)c1`, the T/C is 150 % of control and 176 % of control under setting [4]; 169 % of control and 180 % of control under setting [5]; 184 % of control and 196 % of control under setting [6].

As for `CS(=O)(=O)OCCC(=O)N1CCN(C(=O)CCOS(C)(=O)=O)CC1`, the T/C is 117 % of control under setting [7] and 89 % of control under setting [8].

For the molecule `COc1ccc2c(c1OC)C(=O)O[C@@H]2[C@H]1c2c(cc3c(c2OC)OCO3)CCN1C`, the T/C under setting [9] was 92 % of control.

For the molecule `CN(Cc1cnc2nc(N)nc(N)c2n1)c1ccc(C(=O)N[C@@H](CCC(=O)O)C(=O)O)cc1`, the T/C by setting is: (dose: 0.19 mg/kg/injection, schedule: Q01DX010 (ip), vehicle: other) 101 % of control and 106 % of control; (dose: 0.38 mg/kg/injection, schedule: Q01DX010 (ip), vehicle: other) 100 % of control and 110 % of control and 116 % of control; (dose: 0.75 mg/kg/injection, schedule: Q01DX010 (ip), vehicle: other) 114 % of control.

As for `Nc1nc(SCc2ccccc2)c2[nH]cnc2n1`, the T/C is, setting by setting: under setting [10], 100 % of control and 121 % of control; under setting [4], 114 % of control and 121 % of control; under setting [5], 117 % of control; under setting [6], 89 % of control.

As for `C#CCN(C)Cc1ccccc1`, the T/C is 100 % of control under setting [7], 100 % of control under setting [11], 93 % of control under setting [12] and 106 % of control under setting [8].

As for `N=C(N)SCc1c2ccccc2c(CSC(=N)N)c2ccccc12`, the T/C is, setting by setting: under setting [13], 112 % of control; under setting [1], 118 % of control; under setting [2], 106 % of control; under setting [3], 118 % of control.

In the case of `O=NN(CCCl)C(=O)NCCCl`, the T/C is, setting by setting: (dose: 3.13 mg/kg/injection, schedule: Q01DX010 (ip), vehicle: saline) 158 % of control; under setting [14], 157 % of control and 158 % of control; under setting [15], 103 % of control.

Turning to `CCN(CCNc1ccc(C)c2sc3cc(Cl)ccc3c(=O)c12)CC(C)O` (centres undefined), the T/C under setting [16] is 100 % of control and the T/C (dose: 250.0 mg/kg/injection, schedule: Q01DX010 (ip), vehicle: saline) was 92 % of control.

For `CCCSc1ncnc2nc[nH]c12`, the T/C under setting [16] was 115 % of control and 123 % of control; the T/C under setting [9] was 107 % of control; the T/C (dose: 125.0 mg/kg/injection, schedule: Q01DX010 (ip), vehicle: saline) is 107 % of control.

As to `O=c1[nH]cc(F)c(=O)[nH]1`, the T/C is 123 % of control under setting [1]; 161 % of control and 162 % of control under setting [3].

With `CC(=O)Nc1ccc2nc3ccc(NC(C)=O)cc3[n+](-c3ccccc3)c2c1`, the T/C under setting [7] was 121 % of control and the T/C under setting [11] was 114 % of control.

On to `COc1cc(-c2ccc(Nc3ccccc3C(=O)O)c(OC)c2)ccc1Nc1ccccc1C(=O)O`, for which the T/C under setting [15] was 100 % of control, the T/C under setting [7] is 103 % of control, the T/C under setting [11] is 110 % of control and the T/C under setting [12] was 110 % of control.

As to `N=C(N)c1ccc(Nc2ccc(C(=N)N)cc2)cc1`, the T/C is 93 % of control under setting [17], 87 % of control under setting [18], 96 % of control under setting [19] and 90 % of control under setting [20].

As for `S=P(N1CCOCC1)(N1CC1)N1CC1`, the T/C was 100 % of control under setting [13]; 100 % of control and 107 % of control under setting [1]; 100 % of control and 119 % of control under setting [2]; 107 % of control and 115 % of control under setting [3].

Take `N=[N+]=CC(=O)OCC(N)C(=O)O` (centres undefined): the T/C runs as follows: under setting [14], 153 % of control and 162 % of control; under setting [15], 175 % of control and 176 % of control; under setting [7], 87 % of control and 92 % of control.

In the case of `Nc1nc(N)c2nc(CNc3ccc(C(=O)NC(CCC(=O)O)C(=O)O)cc3)cnc2n1` (centres undefined), the T/C is, setting by setting: (dose: 0.05 mg/kg/injection, schedule: Q01DX010 (ip), vehicle: other) 111 % of control; (dose: 0.1 mg/kg/injection, schedule: Q01DX010 (ip), vehicle: other) 107 % of control; (dose: 0.2 mg/kg/injection, schedule: Q01DX010 (ip), vehicle: other) 123 % of control.

For the molecule `CS(=O)(=O)OCCCl`, the T/C (dose: 9.4 mg/kg/injection, schedule: Q01DX010 (ip), vehicle: saline) was 107 % of control; the T/C (dose: 18.8 mg/kg/injection, schedule: Q01DX010 (ip), vehicle: saline) was 96 % of control and 100 % of control; the T/C under setting [21] was 92 % of control and 107 % of control; the T/C under setting [22] is 92 % of control and 107 % of control.

In the case of `CS(=O)(=O)OCCN(CCOS(C)(=O)=O)c1ccc(N=O)cc1`, the T/C (dose: 1.0 mg/kg/injection, schedule: Q01DX010 (ip), vehicle: saline) is 107 % of control.

In the case of `Nc1ncnc2[nH]ncc12`, the T/C is 107 % of control under setting [17]; 111 % of control under setting [18]; 123 % of control under setting [19]; 88 % of control and 103 % of control under setting [20].

Consider `CO[C@@H]1[C@@H](OC2OC(C)C(OC3CC(C)(O)C(OC(=O)CC(C)C)C(C)O3)C(N(C)C)C2O)[C@@H](CC=O)C[C@@H](C)C(=O)/C=C/C2O[C@H]2C[C@@H](C)OC(=O)C[C@H]1OC(C)=O` (some centres undefined), for which the T/C was 100 % of control under setting [21]; 100 % of control and 107 % of control under setting [22]; 103 % of control and 107 % of control (dose: 150.0 mg/kg/injection, schedule: Q01DX010 (ip), vehicle: saline); 107 % of control and 114 % of control (dose: 300.0 mg/kg/injection, schedule: Q01DX010 (ip), vehicle: saline).

As to `CC(=O)O[C@]1(C(C)=O)CC[C@H]2[C@@H]3C[C@H](C)C4=CC(=O)C=C[C@]4(C)[C@@]3(F)[C@@H](O)C[C@@]21C`, the T/C runs as follows: (dose: 12.5 mg/kg/injection, schedule: Q01DX010 (sc), vehicle: steriod suspending solution) 93 % of control; (dose: 25.0 mg/kg/injection, schedule: Q01DX010 (sc), vehicle: steriod suspending solution) 93 % of control; (dose: 50.0 mg/kg/injection, schedule: Q01DX010 (sc), vehicle: steriod suspending solution) 93 % of control.

As for `O=C(Nc1ccc(NC2=NCCN2)cc1)c1ccc(C(=O)Nc2ccc(NC3=NCCN3)cc2)cc1`, the T/C by setting is: (dose: 2.0 mg/kg/injection, schedule: Q01DX010 (ip), vehicle: saline) 153 % of control and 157 % of control; under setting [23], 173 % of control and 176 % of control; under setting [10], 184 % of control and 203 % of control; under setting [4], 88 % of control and 92 % of control.

For the molecule `S=P(N1CC1)(N1CC1)N1CC1`, the T/C is, setting by setting: (dose: 0.75 mg/kg/injection, schedule: Q01DX010 (ip), vehicle: saline) 103 % of control and 107 % of control; under setting [17], 111 % of control; under setting [19], 115 % of control and 123 % of control.

Regarding `c1ccc(CNc2ncnc3[nH]ncc23)cc1`, the T/C reads like this: under setting [10], 103 % of control and 115 % of control; under setting [4], 107 % of control.

On to `Nc1nc(=S)c2ncn(C3OC(CO)C(O)C3O)c2[nH]1` (centres undefined), for which the T/C reads like this: under setting [23], 110 % of control; under setting [4], 90 % of control.

On to `COS(C)(=O)=O`, for which the T/C is 100 % of control under setting [15], 93 % of control under setting [7] and 116 % of control under setting [11].

As for `Cc1cc(N(CCCl)CCCl)ccc1N=Nc1ccccc1C(=O)O`, the T/C runs as follows: under setting [1], 107 % of control and 114 % of control; under setting [2], 114 % of control.
